Columns and labels:
[1] = Molar enthalpy of transition or fusion
[2] = molar heat capacity at constant pressure

CC(C)[C@@H]1CC[C@@H](C)C[C@H]1O [L-menthol]
[1]
Details	Molar enthalpy of transition or fusion [kcal/mol]
Crystal 1, Adiabatic calorimetry	3.22
Crystal 1, DSC	3.18

Details	Molar enthalpy of transition or fusion [kcal/mol]
[1], Metastable crystal, DSC	2.72

[2]
Details	molar heat capacity at constant pressure [J/K/mol]
5 K, 101.33 kPa, Crystal 1, Small (less than 1 g) adiabatic calorimetry	0.858
10 K, 101.33 kPa, Crystal 1, Small (less than 1 g) adiabatic calorimetry	5.528
15 K, 101.33 kPa, Crystal 1, Small (less than 1 g) adiabatic calorimetry	12.7
20 K, 101.33 kPa, Crystal 1, Small (less than 1 g) adiabatic calorimetry	20.26
25 K, 101.33 kPa, Crystal 1, Small (less than 1 g) adiabatic calorimetry	27.36
30 K, 101.33 kPa, Crystal 1, Small (less than 1 g) adiabatic calorimetry	33.65
35 K, 101.33 kPa, Crystal 1, Small (less than 1 g) adiabatic calorimetry	39.12
40 K, 101.33 kPa, Crystal 1, Small (less than 1 g) adiabatic calorimetry	44.06
45 K, 101.33 kPa, Crystal 1, Small (less than 1 g) adiabatic calorimetry	48.69
50 K, 101.33 kPa, Crystal 1, Small (less than 1 g) adiabatic calorimetry	53.14
55 K, 101.33 kPa, Crystal 1, Small (less than 1 g) adiabatic calorimetry	57.47
60 K, 101.33 kPa, Crystal 1, Small (less than 1 g) adiabatic calorimetry	61.81
65 K, 101.33 kPa, Crystal 1, Small (less than 1 g) adiabatic calorimetry	66.15
70 K, 101.33 kPa, Crystal 1, Small (less than 1 g) adiabatic calorimetry	70.48
75 K, 101.33 kPa, Crystal 1, Small (less than 1 g) adiabatic calorimetry	74.81
80 K, 101.33 kPa, Crystal 1, Small (less than 1 g) adiabatic calorimetry	79.11
85 K, 101.33 kPa, Crystal 1, Small (less than 1 g) adiabatic calorimetry	83.38
90 K, 101.33 kPa, Crystal 1, Small (less than 1 g) adiabatic calorimetry	87.62
95 K, 101.33 kPa, Crystal 1, Small (less than 1 g) adiabatic calorimetry	91.81
100 K, 101.33 kPa, Crystal 1, Small (less than 1 g) adiabatic calorimetry	95.95
105 K, 101.33 kPa, Crystal 1, Small (less than 1 g) adiabatic calorimetry	100
110 K, 101.33 kPa, Crystal 1, Small (less than 1 g) adiabatic calorimetry	104
115 K, 101.33 kPa, Crystal 1, Small (less than 1 g) adiabatic calorimetry	108
120 K, 101.33 kPa, Crystal 1, Small (less than 1 g) adiabatic calorimetry	111.8
125 K, 101.33 kPa, Crystal 1, Small (less than 1 g) adiabatic calorimetry	115.7
130 K, 101.33 kPa, Crystal 1, Small (less than 1 g) adiabatic calorimetry	119.4
135 K, 101.33 kPa, Crystal 1, Small (less than 1 g) adiabatic calorimetry	123.1
140 K, 101.33 kPa, Crystal 1, Small (less than 1 g) adiabatic calorimetry	126.8
145 K, 101.33 kPa, Crystal 1, Small (less than 1 g) adiabatic calorimetry	130.4
150 K, 101.33 kPa, Crystal 1, Small (less than 1 g) adiabatic calorimetry	134
155 K, 101.33 kPa, Crystal 1, Small (less than 1 g) adiabatic calorimetry	137.5
160 K, 101.33 kPa, Crystal 1, Small (less than 1 g) adiabatic calorimetry	141.1
165 K, 101.33 kPa, Crystal 1, Small (less than 1 g) adiabatic calorimetry	144.6
170 K, 101.33 kPa, Crystal 1, Small (less than 1 g) adiabatic calorimetry	148.1
175 K, 101.33 kPa, Crystal 1, Small (less than 1 g) adiabatic calorimetry	151.6
180 K, 101.33 kPa, Crystal 1, Small (less than 1 g) adiabatic calorimetry	155.1
185 K, 101.33 kPa, Crystal 1, Small (less than 1 g) adiabatic calorimetry	158.6
190 K, 101.33 kPa, Crystal 1, Small (less than 1 g) adiabatic calorimetry	162.2
195 K, 101.33 kPa, Crystal 1, Small (less than 1 g) adiabatic calorimetry	165.7
200 K, 101.33 kPa, Crystal 1, Small (less than 1 g) adiabatic calorimetry	169.3
205 K, 101.33 kPa, Crystal 1, Small (less than 1 g) adiabatic calorimetry	172.8
210 K, 101.33 kPa, Crystal 1, Small (less than 1 g) adiabatic calorimetry	176.4
215 K, 101.33 kPa, Crystal 1, Small (less than 1 g) adiabatic calorimetry	180
220 K, 101.33 kPa, Crystal 1, Small (less than 1 g) adiabatic calorimetry	183.7
225 K, 101.33 kPa, Crystal 1, Small (less than 1 g) adiabatic calorimetry	187.4
230 K, 101.33 kPa, Crystal 1, Small (less than 1 g) adiabatic calorimetry	191.1
235 K, 101.33 kPa, Crystal 1, Small (less than 1 g) adiabatic calorimetry	194.9
240 K, 101.33 kPa, Crystal 1, Small (less than 1 g) adiabatic calorimetry	198.7
245 K, 101.33 kPa, Crystal 1, Small (less than 1 g) adiabatic calorimetry	202.5
250 K, 101.33 kPa, Crystal 1, Small (less than 1 g) adiabatic calorimetry	206.5
255 K, 101.33 kPa, Crystal 1, Small (less than 1 g) adiabatic calorimetry	210.7
260 K, 101.33 kPa, Crystal 1, Small (less than 1 g) adiabatic calorimetry	215.1
265 K, 101.33 kPa, Crystal 1, Small (less than 1 g) adiabatic calorimetry	219.5
265.2 K, 100 kPa, Crystal 1, Extra sensitive DSC	221.5
270 K, 100 kPa, Crystal 1, Extra sensitive DSC	225.6
270 K, 101.33 kPa, Crystal 1, Small (less than 1 g) adiabatic calorimetry	223.9
275 K, 100 kPa, Crystal 1, Extra sensitive DSC	230
275 K, 101.33 kPa, Crystal 1, Small (less than 1 g) adiabatic calorimetry	228.2
280 K, 100 kPa, Crystal 1, Extra sensitive DSC	235.1
280 K, 101.33 kPa, Crystal 1, Small (less than 1 g) adiabatic calorimetry	232.4
285 K, 100 kPa, Crystal 1, Extra sensitive DSC	240.5
285 K, 101.33 kPa, Crystal 1, Small (less than 1 g) adiabatic calorimetry	236.7
290 K, 100 kPa, Crystal 1, Extra sensitive DSC	246.3
290 K, 101.33 kPa, Crystal 1, Small (less than 1 g) adiabatic calorimetry	241.5
295 K, 100 kPa, Crystal 1, Extra sensitive DSC	253.1
295 K, 101.33 kPa, Crystal 1, Small (less than 1 g) adiabatic calorimetry	246.7
298.15 K, 101.33 kPa, Crystal 1, Small (less than 1 g) adiabatic calorimetry	250.1
300 K, 101.33 kPa, Crystal 1, Small (less than 1 g) adiabatic calorimetry	252.3
305 K, 101.33 kPa, Crystal 1, Small (less than 1 g) adiabatic calorimetry	258.3
310 K, 101.33 kPa, Crystal 1, Small (less than 1 g) adiabatic calorimetry	264.6
315 K, 101.33 kPa, Crystal 1, Small (less than 1 g) adiabatic calorimetry	271.4
315.6 K, 101.33 kPa, Crystal 1, Small (less than 1 g) adiabatic calorimetry	272.3

[2], Liquid
Details	molar heat capacity at constant pressure [J/K/mol]
315.6 K, 101.33 kPa, Small (less than 1 g) adiabatic calorimetry	376.1
320 K, 101.33 kPa, Small (less than 1 g) adiabatic calorimetry	383.1
325 K, 101.33 kPa, Small (less than 1 g) adiabatic calorimetry	390.8
325.9 K, 100 kPa, Extra sensitive DSC	395.1
330 K, 100 kPa, Extra sensitive DSC	401.1
330 K, 101.33 kPa, Small (less than 1 g) adiabatic calorimetry	398.1
335 K, 100 kPa, Extra sensitive DSC	408
335 K, 101.33 kPa, Small (less than 1 g) adiabatic calorimetry	404.9
340 K, 100 kPa, Extra sensitive DSC	414.3
340 K, 101.33 kPa, Small (less than 1 g) adiabatic calorimetry	411.3
345 K, 100 kPa, Extra sensitive DSC	420.5
345 K, 101.33 kPa, Small (less than 1 g) adiabatic calorimetry	417.1
350 K, 100 kPa, Extra sensitive DSC	426.2
350 K, 101.33 kPa, Small (less than 1 g) adiabatic calorimetry	422.3
355 K, 100 kPa, Extra sensitive DSC	430.8
355 K, 101.33 kPa, Small (less than 1 g) adiabatic calorimetry	427
360 K, 101.33 kPa, Small (less than 1 g) adiabatic calorimetry	431
365 K, 101.33 kPa, Small (less than 1 g) adiabatic calorimetry	434.3
370 K, 101.33 kPa, Small (less than 1 g) adiabatic calorimetry	437

From the NIST ThermoML archive (doi:10.1016/j.jct.2018.11.004)
